Assay results taken from patent publication US20060008541A1, “Sodium channel agonist” (BIZMEDIC CO., LTD., priority 2004, published 2006).
Values joined by “and” are separate entries in the source; they are usually repeats but may differ in a detail not shown here. Equal entries are not always repeated. “Also recorded” adds a separate entry of the source.

What was measured:
L-type calcium current = L-type calcium current (Homo sapiens, UniProt Q13936); conditions: cited from earlier work
cardiac INa = cardiac INa (Homo sapiens, UniProt Q14524); conditions: cited from earlier work
Sequence of cardiac INa (Q14524 whole entry): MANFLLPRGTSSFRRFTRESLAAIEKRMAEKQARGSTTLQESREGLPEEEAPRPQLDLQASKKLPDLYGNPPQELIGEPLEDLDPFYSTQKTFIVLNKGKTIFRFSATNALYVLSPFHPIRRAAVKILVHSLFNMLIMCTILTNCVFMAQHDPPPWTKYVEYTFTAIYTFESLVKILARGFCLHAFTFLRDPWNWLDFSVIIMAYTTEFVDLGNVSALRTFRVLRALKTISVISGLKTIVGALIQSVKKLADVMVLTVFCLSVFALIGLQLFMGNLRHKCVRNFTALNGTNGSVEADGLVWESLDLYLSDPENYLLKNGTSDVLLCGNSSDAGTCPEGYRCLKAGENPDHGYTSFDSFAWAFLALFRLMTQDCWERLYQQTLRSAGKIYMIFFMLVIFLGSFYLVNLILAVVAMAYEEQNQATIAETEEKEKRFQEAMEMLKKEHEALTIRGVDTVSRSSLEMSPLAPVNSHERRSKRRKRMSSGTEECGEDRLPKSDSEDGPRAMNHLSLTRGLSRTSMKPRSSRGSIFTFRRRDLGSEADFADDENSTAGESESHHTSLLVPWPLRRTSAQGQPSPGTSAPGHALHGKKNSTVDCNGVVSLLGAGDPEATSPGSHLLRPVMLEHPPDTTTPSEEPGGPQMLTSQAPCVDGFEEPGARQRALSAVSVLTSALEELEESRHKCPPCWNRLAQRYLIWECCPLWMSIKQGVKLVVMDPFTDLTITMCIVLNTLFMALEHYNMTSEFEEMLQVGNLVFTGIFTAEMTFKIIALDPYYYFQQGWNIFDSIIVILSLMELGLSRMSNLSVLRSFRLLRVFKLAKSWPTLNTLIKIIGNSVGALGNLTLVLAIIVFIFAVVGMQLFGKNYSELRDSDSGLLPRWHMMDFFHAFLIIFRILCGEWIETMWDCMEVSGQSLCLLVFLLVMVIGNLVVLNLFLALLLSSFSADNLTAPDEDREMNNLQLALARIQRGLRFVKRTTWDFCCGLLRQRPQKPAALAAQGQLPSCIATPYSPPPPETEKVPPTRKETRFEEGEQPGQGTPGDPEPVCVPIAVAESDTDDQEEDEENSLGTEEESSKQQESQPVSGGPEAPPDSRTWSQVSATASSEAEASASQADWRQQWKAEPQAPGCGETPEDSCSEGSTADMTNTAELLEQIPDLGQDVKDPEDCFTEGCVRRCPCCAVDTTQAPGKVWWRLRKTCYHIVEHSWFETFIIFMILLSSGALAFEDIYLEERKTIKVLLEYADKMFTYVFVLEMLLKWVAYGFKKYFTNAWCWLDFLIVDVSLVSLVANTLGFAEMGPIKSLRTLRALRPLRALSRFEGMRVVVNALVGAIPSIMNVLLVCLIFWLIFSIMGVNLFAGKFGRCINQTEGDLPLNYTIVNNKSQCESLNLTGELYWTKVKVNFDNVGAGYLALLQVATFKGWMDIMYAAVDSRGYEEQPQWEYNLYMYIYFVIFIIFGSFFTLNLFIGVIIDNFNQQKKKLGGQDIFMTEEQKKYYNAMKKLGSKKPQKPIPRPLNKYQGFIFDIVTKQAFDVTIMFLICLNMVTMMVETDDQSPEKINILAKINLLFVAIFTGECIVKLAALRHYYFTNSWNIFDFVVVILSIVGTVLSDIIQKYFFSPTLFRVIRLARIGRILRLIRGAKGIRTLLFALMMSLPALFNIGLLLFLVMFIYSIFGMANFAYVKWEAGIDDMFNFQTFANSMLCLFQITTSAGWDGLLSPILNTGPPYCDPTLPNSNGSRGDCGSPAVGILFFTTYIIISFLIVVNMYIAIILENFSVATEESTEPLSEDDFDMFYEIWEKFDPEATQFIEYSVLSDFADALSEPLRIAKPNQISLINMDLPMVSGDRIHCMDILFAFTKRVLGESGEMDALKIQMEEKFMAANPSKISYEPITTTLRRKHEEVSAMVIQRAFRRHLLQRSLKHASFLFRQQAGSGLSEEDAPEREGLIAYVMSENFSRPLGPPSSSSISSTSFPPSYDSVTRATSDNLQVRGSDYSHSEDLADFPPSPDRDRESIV

[1] = tested on: inward rectifier K+ current; conditions: cited from earlier work
rat ventricular myocytes = test: Action potentials in isolated rat ventricular myocytes, whole-cell current clamp
Description: Ventricular myocytes were isolated from the hearts of 3-week or 6 to 7- week-old Sprague-Dawley rats of either sex. Rats were anaesthetized with pentobarbitone sodium (i.p. 200 mg kg^−1). Isolated hearts were mounted on a Langendorff perfusion apparatus, washed at 37° C. for 5 min with a modified Tyrode solution containing (mM): 143 NaCl, 5.4 KCl, 5 HEPES, 0.5 MgCl2, 0.5 NaH2PO4, 1.8 CaCl2, 10 glucose, adjusted pH to 7.4 with NaOH, and then perfused with Ca^2+-free Tyrode solution for 5 min. After the hearts had stopped beating, Ca^2+-free Tyrode solution containing collagenase (0.5 mg ml^−1, Type II, Worthington) was perfused for 30 min. Finally, this enzyme containing solution was washed out for 5 min with a high K^+, low Cl^−KB solution containing (in mM): 70 K-glutamate, 55 KCl, 10 HEPES, 3 MgCl2, 20 taurine, 20 KH2PO4, 0.5 K-EGTA adjusted pH to 7.3 with KOH. A portion of the left ventricle was then dissected out and gently stirred with a forceps in KB solution. The isolated ventricular myocytes were kept in KB solution at 5° C. before use.
Patch pipettes (1˜2 MΩ when filled with experimental solutions) were pulled from borosilicate glass capillaries (Harvard Apparatus Ltd, UK). Conventional whole-cell patch clamp technique was used to record membrane current or voltage from single ventricular myocytes. In current-clamp mode, action potentials were evoked by a brief supra-threshold current pulse. In voltage clamp mode, access resistance was monitored throughout the experiment, and data were accepted only when the access resistance was kept below 6 MΩ. Filtered signals (10 KHz) from a patch clamp amplifier (Biologic RK 300, France), were fed into AD/DA converter (PCI-MIO-16E-4, National Instrument, USA), digitized at 20 KHz, and stored in PC for later analysis. The flow rate of the perfusion solution was 0.5˜1 ml min^−1. All electrophysiological experiments were performed at room temperature (23˜25° C.). The statistical results in the text and in figures were presented as means ±S.E.M. (n=number of cells studied). Statistical significance was accepted for p value <0.05.
APs were evoked by applying 50-70 pA depolarising current pulses (5 ms in duration) every 500 ms through a patch pipette in current clamp mode with a whole-cell configuration. The effects of dmLSB on APD were quantified in terms of APD90; defined as the APD measured at the voltage at which repolarization process is 90% complete. Time-profile of the change in APD90 values averaging from five sequential APs selected every 12 seconds was plotted in FIG. 2A as a function of whole-cell recording time.
Experimental methods for electrophysiology (recording currents and action potentials) are the same as described above for dmLSB.

Na+ current (INa) = Na+ current (INa) (Rattus norvegicus, UniProt P15389); test: Na+ current (INa) in rat ventricular myocytes, whole-cell voltage clamp; type: cell-based; design: endogenous in cells; host or cells: freshly isolated rat (Sprague-Dawley) left ventricular myocytes
Sequence of Na+ current (INa) (P15389 whole entry): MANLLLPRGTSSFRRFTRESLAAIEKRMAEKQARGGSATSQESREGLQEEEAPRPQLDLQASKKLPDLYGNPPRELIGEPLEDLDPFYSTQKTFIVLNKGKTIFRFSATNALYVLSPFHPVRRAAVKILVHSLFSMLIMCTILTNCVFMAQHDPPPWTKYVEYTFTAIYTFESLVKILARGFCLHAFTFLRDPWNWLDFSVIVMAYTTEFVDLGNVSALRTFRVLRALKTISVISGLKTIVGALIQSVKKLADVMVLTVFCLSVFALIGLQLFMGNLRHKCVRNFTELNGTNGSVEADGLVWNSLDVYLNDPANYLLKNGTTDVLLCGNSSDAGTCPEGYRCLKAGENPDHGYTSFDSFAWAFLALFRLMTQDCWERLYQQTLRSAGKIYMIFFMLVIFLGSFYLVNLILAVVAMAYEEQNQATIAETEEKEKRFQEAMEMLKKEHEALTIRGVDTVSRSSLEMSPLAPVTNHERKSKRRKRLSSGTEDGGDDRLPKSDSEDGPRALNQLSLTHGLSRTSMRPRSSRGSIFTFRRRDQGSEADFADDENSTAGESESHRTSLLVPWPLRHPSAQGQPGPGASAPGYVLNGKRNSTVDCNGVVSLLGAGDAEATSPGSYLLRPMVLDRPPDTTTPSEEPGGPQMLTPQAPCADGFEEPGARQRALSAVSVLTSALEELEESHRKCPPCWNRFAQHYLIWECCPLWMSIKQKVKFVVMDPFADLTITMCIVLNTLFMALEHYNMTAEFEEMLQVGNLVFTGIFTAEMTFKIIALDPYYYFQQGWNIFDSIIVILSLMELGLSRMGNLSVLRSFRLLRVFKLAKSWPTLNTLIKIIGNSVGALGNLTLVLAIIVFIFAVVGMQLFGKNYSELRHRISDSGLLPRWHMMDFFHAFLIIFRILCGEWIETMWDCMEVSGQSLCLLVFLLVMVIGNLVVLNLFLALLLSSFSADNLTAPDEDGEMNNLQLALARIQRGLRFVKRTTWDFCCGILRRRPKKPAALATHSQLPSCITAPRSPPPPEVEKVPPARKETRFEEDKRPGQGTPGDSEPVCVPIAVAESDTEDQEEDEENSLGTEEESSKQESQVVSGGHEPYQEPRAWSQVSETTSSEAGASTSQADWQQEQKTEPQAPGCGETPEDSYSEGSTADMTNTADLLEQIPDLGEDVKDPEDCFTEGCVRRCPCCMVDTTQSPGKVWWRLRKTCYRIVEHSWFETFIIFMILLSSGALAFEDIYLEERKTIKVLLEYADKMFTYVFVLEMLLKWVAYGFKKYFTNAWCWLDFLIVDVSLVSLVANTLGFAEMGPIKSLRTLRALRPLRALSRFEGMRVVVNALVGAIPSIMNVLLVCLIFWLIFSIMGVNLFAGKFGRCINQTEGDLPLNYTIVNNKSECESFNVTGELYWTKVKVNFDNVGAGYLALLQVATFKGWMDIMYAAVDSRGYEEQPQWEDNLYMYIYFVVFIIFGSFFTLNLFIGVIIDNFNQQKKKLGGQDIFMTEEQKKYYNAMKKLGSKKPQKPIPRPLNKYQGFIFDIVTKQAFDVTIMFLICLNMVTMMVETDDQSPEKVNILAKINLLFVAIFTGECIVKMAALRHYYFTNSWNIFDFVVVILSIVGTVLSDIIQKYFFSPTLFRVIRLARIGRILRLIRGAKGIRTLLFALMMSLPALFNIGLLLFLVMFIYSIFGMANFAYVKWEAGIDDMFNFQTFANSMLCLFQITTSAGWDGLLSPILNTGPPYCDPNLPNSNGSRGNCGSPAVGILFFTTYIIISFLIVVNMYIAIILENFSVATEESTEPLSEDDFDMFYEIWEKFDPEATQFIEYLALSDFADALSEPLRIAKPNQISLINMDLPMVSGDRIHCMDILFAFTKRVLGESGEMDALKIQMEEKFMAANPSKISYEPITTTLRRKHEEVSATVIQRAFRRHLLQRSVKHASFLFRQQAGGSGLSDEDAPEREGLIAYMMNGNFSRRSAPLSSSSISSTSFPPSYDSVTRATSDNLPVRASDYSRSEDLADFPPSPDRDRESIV
Description: (§1) Statistical significance was accepted for p value <0.05.
As sodium current (INa) in ventricular myocytes is so fast and large that membrane potential is prone to escape from the command voltage, it is necessary to reduce INa for a quantitative analysis. For this purpose, small ventricular myocytes isolated from young (3-weeks-old) rats were used, and currents recorded in a modified Cs^+-based low Na^+ bath solution (Yuill et al., 2000) which contained (in mM): 130 CsCl, 10 NaCl, 2.5 MgCl2, 0.5 CaCl2, 20 HEPES, 11 glucose, in experiments shown in FIG. 5. It was reported that the kinetics of INa in the standard solution (145 mM Na^+) and in Cs-based solution (10 mM Na^+) were similar.
To examine the effect of dmLSB on inward currents, a Cs^+-rich pipette solution containing 10 mM EGTA was used. To distinguish L-type Ca^2+ currents (ICa,L) from Na^+ currents (INa), a two-step pulse protocol was used (inset of FIG. 4A). […] Although the peak amplitude of INa was unaffected by dmLSB, significant broadening of inactivation phase was observed.
To avoid the problem of voltage escape and to investigate the effects of dmLSB on INa in a quantitative manner, INa was recorded in low external [Na^+] (10 mM). It is well known that the steady-state inactivation shifted spontaneously during whole-cell mode recording. To activate INa from the potential at which inactivation is fully recovered, depolarising test pulses were applied following a 500 ms pre-pulse to −120 mV. To eliminate the contamination of ICa,L and to isolate pure INa, current response to the same test pulse from holding potential (Vh) of −40 mV, which was regarded as ICa,L, was subtracted from that from Vh of −120 mV.
Pre-pulses of 500 ms duration at variable potentials (from −150 to −15 mV in 15 mV steps) preceded a 50 ms test pulse to −20 mV. The superimposed current responses to the test pulse (−20 mV) are shown in FIG. 6A (left, control; right, 20 μM dmLSB). […] The peak amplitudes of INa are plotted against pre-pulse voltages in FIG. 6B. […] The voltages for half inactivation were −75.7±0.61 mV (n=28) in control and −77.8±1.05 mV (n=32) in the presence of dmLSB (t-test, p>0.05).
Since dmLSB specifically affected the slow phase of inactivation, the difference current represented the slow inactivating INa (ISlow) induced by dmLSB. To quantify the magnitude of the effect of dmLSB on INa, the relative amplitude of ISlow to the peak INa was plotted.
Since dmLSB is lipophilic, it is possible that it permeates the plasma membrane and binds to intracellular receptors or to Na channel protein itself. It is not clear whether its effects were mediated via a cell surface binding site, an intracellular site, or both. To test this possibility, a ventricular myocyte was perfused intracellularly with the patch pipette solution containing 20 μM dmLSB, and INa was monitored while patch pipette solution diffused-in. Meanwhile, the series resistance (RS) was kept below 7 MΩ. As soon as the whole-cell patch was established, INa was recorded at a test potential of −20 mV, and this current trace was subtracted from subsequent INa records. The amplitudes of the subtracted currents were plotted as a function of whole-cell recording time (WCR time; FIG. 8A). […] No change in the inactivation kinetics of INa was observed until dmLSB was applied externally. When 5 μM dmLSB was bath-applied at ca 13 min of WCR time to the same cell, ISlow appeared, indicative of the dmLSB effect.

[2] = biological target: L-type Ca2+ current (ICa,L) (Rattus norvegicus, UniProt P22002); type: cell-based; conditions: 10 μM dmLSB
[3] = tested on: inward rectifier K+ currents and delayed rectifier K+ currents; test: K+ currents in rat ventricular myocytes, voltage clamp with K+-rich pipette solution; type: cell-based; conditions: 10 μM dmLSB; I950ms
Description: as §1
The K-rich pipette solution containing (in mM): 90 K-aspartate, 30 KCl, 2 MgCl2, 5 Mg-ATP, 10 HEPES, 5 K-EGTA, 5 diTris-creatine phosphate, 2.5 Na2-creatine phosphate was used. Cs-aspartate internal solution contained (in mM): 90 Cs-aspartate, 20 CsCl, 2 MgCl2, 5 Mg-ATP, 10 HEPES, 2.5 Na2-creatine phosphate, 10 tetraethyl-ammonium chloride (TEA-Cl), 5 Cs-EGTA with pH adjusted to 7.3 using CsOH. When Cs-aspartate internal solution was used in combination with normal Tyrode (NT) bathing solution, the holding current level was inward at −80 mV, probably due to K^+ influx via inward rectifier K channels. To prevent this inward holding current, KCl in the NT solution was substituted with equimolar CsCl.
To elucidate the mechanism underlying APD change by dmLSB, voltage-clamp experiments were performed and the effects of dmLSB on the ionic currents in rat ventricular myocytes were investigated. Membrane currents were recorded in a voltage clamp mode using a patch pipette containing a K^+-rich (140 mM) internal solution. […]
However, initial amplitudes measured at 20 ms (I20ms) in the presence of dmLSB differed from those measured under control conditions, and the I-V relationship deviated inwardly by dmLSB. […]

[4] = mean value, during dmLSB superfusion, n=7

**Q.** Which “calcium current (literature)” value (L-type calcium current) does the source give for `N#Cc1cc2c(OCC(O)COC3CN(C(c4ccccc4)c4ccccc4)C3)cccc2[nH]1` (stereo not shown) [BDF 9148] here?
**A.** inhibit

**Q.** And the “persistent INa (literature)” value (cardiac INa)?
**A.** induce a persistent INa

**Q.** What about the “inward rectifier K+ current (literature)” value [1] of the same compound?
**A.** inhibit

**Q.** Which “calcium current (literature)” value (L-type calcium current) does the source give for `N#Cc1cc2c(OCC(O)CN3CCN(C(c4ccccc4)c4ccccc4)CC3)cccc2[nH]1` (stereo not shown) [DPI 201-106] here?
**A.** inhibit

**Q.** What about the “persistent INa (literature)” value (cardiac INa) of the same compound?
**A.** induce a persistent INa

**Q.** What about the “inward rectifier K+ current (literature)” value [1] of the same compound?
**A.** inhibit

**Q.** Which “calcium current (literature)” value (L-type calcium current) does the source give for `Cc1oc2ccccc2c1Cc1cc(I)c(OCC(=O)O)c(I)c1` [KB130015, 2-Methyl-3-(3,5-diiodo-4-carboxymethoxybenzyl)benzofuran] here?
**A.** reduces ICa

**Q.** And the “INa inactivation (literature)” value (cardiac INa)?
**A.** slowed INa inactivation

**Q.** What about the “persistent INa (literature)” value (cardiac INa) of the same compound?
**A.** without developing persistent INa

**Q.** Which electrophysiological effect (rat ventricular myocytes) does the source give for `O=C(/C=C/c1ccc(O)c2c1C(C(=O)OC(Cc1ccc(O)c(O)c1)C(=O)O)C(c1ccc(O)c(O)c1)O2)OC(Cc1ccc(O)c(O)c1)C(=O)O` (stereo not shown) [LSB, lithospermate B, reference compound] here?
**A.** negligible electrophysiological effect; also recorded: no effect on cardiac action potential

**Q.** Which results are given for `COC(=O)[C@@H](Cc1ccc(O)c(O)c1)OC(=O)/C=C/c1ccc(O)c2c1[C@H](C(=O)O[C@H](Cc1ccc(O)c(O)c1)C(=O)OC)[C@@H](c1ccc(O)c(O)c1)O2` [dmLSB, dimethyl lithospermate B]?
**A.** INa inactivation kinetics (Na+ current (INa)): slowed the inactivation kinetics; steady-state (s-s) inactivation of INa (Na+ current (INa)): not affected; also recorded: no effect on the steady-state inactivation; peak amplitude of INa (Na+ current (INa); 10 μM dmLSB): unaffected; also recorded: decreased slightly; time within which INa inactivation was completed (Na+ current (INa); 10 μM dmLSB, −20 mV): ≤ 50 ms; effect of intracellular application on INa (Na+ current (INa); 20 μM dmLSB in pipette solution, n=4): essentially no effect on INa; V1/2 of steady-state inactivation fit (Na+ current (INa); 20 μM dmLSB, n=32, control −75.7, no unit): −77.8; voltage for half inactivation (Na+ current (INa); 20 μM dmLSB, n=32, control −75.7±0.61 mV): −77.8±1.05 mV; k of steady-state inactivation fit (Na+ current (INa); 20 μM dmLSB, control 10.20): 9.99; amplitude of the slow component (AS), of the peak INa (Na+ current (INa); at −20 mV, 10 μM dmLSB, bi-exponential fit, n=4): 22.1±1.02%; time to maximal effect at each concentration (Na+ current (INa); bath application): ca. 150 seconds; Hill coefficient (Na+ current (INa); dose-response of ISlow relative to peak INa): 1.02; mean voltage for half-maximal activation (Na+ current (INa); in the presence of 10 μM dmLSB, low [Na+] 10 mM, n=4, control −42.35±1.1): −37.28±0.8; EC50 (Na+ current (INa); test pulse −20 mV, Hill fit, read-out: EC50, relative amplitude of slow component (ISlow) to peak INa): 21.1 µM and 20 µM; shift of voltage-dependence of activation (activation curve) (Na+ current (INa); to the depolarised (right) direction, 10 μM dmLSB): 5 mV; reversibility of effect on INa (Na+ current (INa); wash-out): reversible; also recorded: completely reversed after the wash-out; effect on Ca2+ currents (ICa,L) [2]: no noticeable effect; also recorded: hardly affected; also recorded: No significant difference; effect on K+ currents [3]: no noticeable effect; also recorded: no significant difference; Action potential duration (APD90) (rat ventricular myocytes; 20 μM dmLSB, control 58.8±12.1 ms, n=7): 202.3 ± 9.5 ms; early after-depolarisation (EAD) (rat ventricular myocytes; during prolonged plateau phase of AP): no early after-depolarisation was observed; also recorded: not associated with the generation of EAD; also recorded: no EAD observed; effect on AP duration (APD) (rat ventricular myocytes; isolated rat ventricular myocytes): increases the APD; overshoot potential (rat ventricular myocytes; [4]): 53.53±8.8 mV; resting membrane potential (RMP) (rat ventricular myocytes; [4]): −68.46±2.6 mV; concentration at which APD prolongation was maximal (rat ventricular myocytes; tested up to 100 μM): 20 µM

**Q.** Which “activation and inactivation curves of INa (literature)” value (cardiac INa) does the source give for `CC1(C)C(C(=O)OC(C#N)c2cccc(Oc3ccccc3)c2)C1(C)C` (stereo not shown) [fenpropathrin] here?
**A.** leftward shifts
